Laboratory results as given in patent US20210163552A1, “PEPTIDE FOR INDUCING REGENERATION OF TISSUE, AND USE THEREOF” (SHIONOGI & CO., LTD., priority 2017, published 2021).
Where no end group is shown, it is not given here.

Assays:
[1] = Stability of peptides in plasma (Example 6); type: in vitro ADME; settings: rat plasma on ice, assay concentration 5 μg/mL; for stability in rat plasma compared to 2-44 / stability in rat plasma, Peptide-3 and Peptide-6 compared with each other: 30 and 60 minutes (FIG. 3)
Method: A 5 mL tube previously charged with 60 μL of a 10% EDTA-2K was charged with 3 mL of whole blood collected from Crl: CD (SD) rats, and the contents were allowed to stand at room temperature for 30 minutes, and then centrifuged at 4° C. and at 3,000 rpm (1600×g) for 10 minutes. The supernatant was collected to be used as a blank plasma. The plasma obtained was stored on ice and only used on the day of the stability test.
Each of the peptide at position 2 to position 44 of human HMGB1 (2-44), the modified peptide prepared in Example 1 (Peptide-3), and the modified peptide prepared in Example 4 (Peptide-6) was prepared into a solution at 375 μg/mL with distilled water from a stock solution in which each peptide was dissolved in a 0.1% aqueous TFA solution at 1 mg/mL. Eight microliters of the solution was added to 592 μL of the blank plasma to prepare a sample for the stability test (assay concentration: 5 μg/mL). The sample for stability test was allowed to stand on ice, and 50 μL was collected immediately after the addition, and 30 and 60 minutes after the addition. To 50 μL of the collected sample were added 250 μL of 270 mmol/L citric acid solution/130 mmol/L EDTA-2K aqueous solution (4:1, v/v), and 50 μL of a 0.1% aqueous TFA solution, and mixed. To the mixture was added 350 μL of methanol and mixed, and further 100 μL of acetonitrile was added thereto and mixed, and the mixture was once frozen with dry ice. After 5 to 60 minutes, the frozen sample was thawed at room temperature, and the supernatant obtained by centrifugation at 4° C. and at 14,000×g for 3 minutes was collected in an amount of 400 μL, dried and solidified with a centrifugal concentrator (Spin Dryer Light VC-36R, manufactured by TAITEC CORPORATION), and dissolved in 200 μL of a 1% TFA/2% ACN Buffer, and filtrated with a filter (0.22 μm) to obtain samples for the measurement.
The samples for the measurement were introduced into high-performance liquid chromatograph-single quadrupolar mass spectrometer to detect the monitor ions peculiar to each of the peptides. From separately prepared samples of which concentrations were known, a calibration curve was drawn in a concentration range of from 0.1 to 10 μg/mL, and an inverse regression was obtained from peak areas of chromatograms obtained by measurements of each sample to obtain a peptide concentration in the samples. For the peptide concentration at each time point, a remaining rate (%) which was calculated by defining one immediately after the addition as 100 was plotted against the time after the addition (FIG. 3).

[2] = test system: murine bone marrow-derived stromal cell line ST2; assay: Measurements of cell-migration activity (Example 2); type: cell-based; design: key: five levels of scores (−, ±, +, ++, +++); five levels of scores (−, ±, +, ++, +++); five levels of scores (−, ±, +, ++, +++); five levels of scores (−, ±, +, ++, +++); five levels of scores (−, ±, +, ++, +++); settings: ST2 cells, peptide at 10 μM, cultured overnight, score from photographed images
Method: Cells of murine bone marrow-derived stromal cell line ST2 (RCB0224, RIKEN BioResource Research Center) were removed from a dish using TrypLE Express (Thermo Fisher Scientific), and collected by centrifugation at 25° C. and 1,500 rpm for 5 minutes. The cell pellets were prepared into a concentration of 7×10^5 cells/mL with RPMI 1640/10% FBS/1% PenStrep (Gibco), and seeded at 70 μL/insert well on a 24-well plate set with a culture insert (Nippon Genetics Co., Ltd.). After 24 hours, the culture insert was taken out, and the cells were washed once with RPMI 1640. Each of the peptide samples (a peptide of position 2 to position 44 of human HMGB1 (2-44), and the five kinds of modified peptides Peptide-1 to -5 prepared in Example 1), each prepared at 10 μM with an assay medium (RPMI 1640/0.1% FBS) was added in an amount of 550 μL, and the cells were further cultured overnight. As a negative control (NC), only the assay medium was added. After the culture, the cells were fixed, stained with DiffQuik, and photographed. The degree of cell migration of each group from the photographed images was evaluated with five levels of scores (−, ±, +, ++, +++). In addition, each of the peptide samples was subjected to three test runs under the same conditions.

Sequence | peptide concentration in the stability test sample (quantifiable lower limit) ([1]; 30 minutes after the addition) [µg/mL] | stability in rat plasma compared to 2-44 [1] | stability in rat plasma, Peptide-3 and Peptide-6 compared with each other [1] | degree of cell migration, 1st Run [2] | degree of cell migration, 2nd Run [2] | degree of cell migration, 3rd Run [2]
GKGDPKKPRGKMSSYAFFVQTCREEHKKKHPDASVNFSEFSKK [Peptide 2-44, GKGDPKKPR GKMSSYAFFVQTCREEHKKKHPDASVNFSEFSKK, reference compound] | ≤ 0.5 | – | – | – | – | –
GKGDPKKPRGKMSSYAFFVQTCREEHKKKHPDASVNFSEFSPP [Peptide-6, GKGDPKKPR GKMSSYAFFVQTCREEHKKKHPDASVNFSEFSPP] | – | stable as compared to 2-44 | of the same level | – | – | –
MGKGDPKKPRGKMSSYAFFVQTCREEHKKKHPDASVNFSEFSKA (MGKGDPKKPRGKMSSYAFFVQTCREEHKKKHPDASVNFSEFSKA) [Peptide-4] | – | – | – | ++ | + | +++
MGKGDPKKPRGKMSSYAFFVQTCREEHKKKHPDASVNFSEFSKE (MGKGDPKKPRGKMSSYAFFVQTCREEHKKKHPDASVNFSEFSKE) [Peptide-5] | – | – | – | ++ | ++ | ++
MGKGDPKKPRGKMSSYAFFVQTCREEHKKKHPDASVNFSEFSKP (MGKGDPKKPRGKMSSYAFFVQTCREEHKKKHPDASVNFSEFSKP) [Peptide-1] | – | – | – | +++ | + | +++
MGKGDPKKPRGKMSSYAFFVQTCREEHKKKHPDASVNFSEFSPK (MGKGDPKKPRGKMSSYAFFVQTCREEHKKKHPDASVNFSEFSPK) [Peptide-2] | – | – | – | +++ | ++ | +++
MGKGDPKKPRGKMSSYAFFVQTCREEHKKKHPDASVNFSEFSPP [Peptide-3, MGKGDPKKPRGKMSSYAFFVQTCREEHKKKHPDASVNFSEFSPP] | – | stable as compared to 2-44 | of the same level | – | – | –
